Where two headings read alike, the source gives them in different places.
What was measured:
NCI-H226 cells = assay: Cell growth assay (CellTiter-Glo); type: cell-based, human; details: 7 days treatment, CellTiter-Glo luminescence, read-out: H226 CTG IC50
Protocol: Example A: Cell Growth Assay
CellTiter-Glo reagent (CTG reagent, Promega, G7573).
[…] Also seeding an extra plate as Day 0 control measurement. The microplates were incubated at 37° C., 5% CO2 overnight.
Compounds were 3-fold serial diluted in DMSO and final top-concentration was […], 10 points. 0.3% DMSO as vehicle control. In addition, […] of CTG reagent was added into the extra plate and incubated at room temperature for 30 minutes and detected luminescence signals as Day 0 control by using EnVision (PerkinElmer, 2104 Mutilabel Reader).
Incubated other compounds treated plates at 37° C. for another 7 days and […] of CTG reagent was added into the plates and incubated at room temperature for 30 minutes and detected luminescence signals.
Day 0 luminescence signals were used as negative control or baseline. • Signalday0=average luminescence signals of Day 0 control cells. • Signalblank control=average luminescence signals of blank control. • SignalDMSO vehicle control=average luminescence signals of Day 7 DMSO vehicle control cells. • Signalcpds treatment=luminescence signals of Day 7 compounds treatment cells. Inhibition %=1−(Signalcpds treatment−Signalblank control)/(SignalDMSO vehicle control−Signalblank control)*100.
(Inhibitory concentration 50% (IC50) and maximum inhibition % were calculated using dose response curves.

TEAD2 = TEAD2 (Homo sapiens, UniProt Q15562); assay: Thermal shift assay TEAD2; type: binding
Chain of TEAD2 (Q15562 whole entry, species assumed): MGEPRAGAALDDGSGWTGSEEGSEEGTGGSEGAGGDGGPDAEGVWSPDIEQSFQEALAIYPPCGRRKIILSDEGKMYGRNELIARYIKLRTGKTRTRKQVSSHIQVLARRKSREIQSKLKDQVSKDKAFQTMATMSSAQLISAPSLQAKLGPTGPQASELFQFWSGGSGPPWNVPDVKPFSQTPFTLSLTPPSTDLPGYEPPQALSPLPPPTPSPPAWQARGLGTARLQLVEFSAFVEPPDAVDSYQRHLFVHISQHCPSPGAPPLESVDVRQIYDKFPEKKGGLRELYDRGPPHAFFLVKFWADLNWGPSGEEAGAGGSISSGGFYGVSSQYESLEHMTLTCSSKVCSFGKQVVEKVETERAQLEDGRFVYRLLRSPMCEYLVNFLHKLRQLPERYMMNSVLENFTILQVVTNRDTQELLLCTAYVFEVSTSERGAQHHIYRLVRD
Protocol: (§1) Example B: Thermal Shift Assay
(§2) 1) Prepare a fresh dilution of Protein Thermal Shift™ Dye (Applied Biosystems, 1000×) to 8× by […].
(§3) 2) To ensure the same DMSO concentration, the compounds were diluted as follows: Prepare 10 mM stock solution of compounds;
(§4) The final DMSO concentration was 0.1%
(§5) 10 μM: Diluting stock solution to 100 μM by using PBS.
(§6) 1 μM: Diluting stock solution to 1 mM by using DMSO, then dilute to 10 μM by using PBS.
(§7) TEAD1: the stock concentration was 2.9 mg/ml; the final concentration was 0.2 mg/ml. TEAD2: the stock concentration was 1.8 mg/ml; the final concentration was 0.08 mg/ml.
(§8) 4) Place the appropriate reaction plate or tubes on ice, then prepare the protein melt reactions:
(§9) 5) Pipet each reaction up and down 10 times to mix well.
(§10) 6) Seal the plate with MicroAmp™ Optical Adhesive Film, spin it at 1000 rpm for 1 minute.
(§11) 7) Set up and run on the qPCR instrument.
(§12) Using thermal Shift™ Software v1.3 to analysis.

TEAD3 = TEAD3 (Homo sapiens, UniProt Q99594); assay: Thermal shift assay TEAD3; type: binding
Chain of TEAD3 (Q99594 whole entry, species assumed): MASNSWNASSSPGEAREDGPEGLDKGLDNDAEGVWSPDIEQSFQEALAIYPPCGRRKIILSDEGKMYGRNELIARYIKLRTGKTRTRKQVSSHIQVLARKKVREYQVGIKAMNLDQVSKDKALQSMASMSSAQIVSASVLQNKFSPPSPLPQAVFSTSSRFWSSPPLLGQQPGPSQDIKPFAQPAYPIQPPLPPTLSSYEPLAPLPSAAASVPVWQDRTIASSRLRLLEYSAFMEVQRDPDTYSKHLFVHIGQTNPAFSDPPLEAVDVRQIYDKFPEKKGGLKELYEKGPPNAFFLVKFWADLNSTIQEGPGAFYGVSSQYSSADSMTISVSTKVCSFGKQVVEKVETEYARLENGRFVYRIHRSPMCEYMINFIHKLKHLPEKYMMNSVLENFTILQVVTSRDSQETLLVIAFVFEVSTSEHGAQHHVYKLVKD
Protocol: as §1, §2, §3, §4, §5, §6
TEAD3: the stock concentration was 2.4 mg/ml; the final concentration was 0.1 mg/ml.
as §8, §9, §10, §11, §12

TEAD1 = TEAD1 (Homo sapiens, UniProt P28347); assay: Thermal shift assay TEAD1; type: binding
Chain of TEAD1 (P28347 whole entry, species assumed): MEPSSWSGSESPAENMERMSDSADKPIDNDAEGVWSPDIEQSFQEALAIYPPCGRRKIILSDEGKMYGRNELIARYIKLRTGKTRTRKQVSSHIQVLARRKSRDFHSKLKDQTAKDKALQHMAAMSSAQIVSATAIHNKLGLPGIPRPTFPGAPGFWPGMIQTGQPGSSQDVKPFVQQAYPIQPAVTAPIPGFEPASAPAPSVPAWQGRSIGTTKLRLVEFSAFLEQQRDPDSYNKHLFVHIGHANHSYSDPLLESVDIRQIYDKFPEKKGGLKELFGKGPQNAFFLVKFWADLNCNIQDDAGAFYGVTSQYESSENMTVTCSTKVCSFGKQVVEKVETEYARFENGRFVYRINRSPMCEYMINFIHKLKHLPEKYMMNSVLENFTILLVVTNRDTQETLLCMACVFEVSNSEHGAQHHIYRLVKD
Protocol: as §1, §2, §3, §4, §5, §6, §7, §8, §9, §10, §11, §12

TEAD4 = TEAD4 (Homo sapiens, UniProt Q15561); assay: Thermal shift assay TEAD4; type: binding
Chain of TEAD4 (Q15561 whole entry, species assumed): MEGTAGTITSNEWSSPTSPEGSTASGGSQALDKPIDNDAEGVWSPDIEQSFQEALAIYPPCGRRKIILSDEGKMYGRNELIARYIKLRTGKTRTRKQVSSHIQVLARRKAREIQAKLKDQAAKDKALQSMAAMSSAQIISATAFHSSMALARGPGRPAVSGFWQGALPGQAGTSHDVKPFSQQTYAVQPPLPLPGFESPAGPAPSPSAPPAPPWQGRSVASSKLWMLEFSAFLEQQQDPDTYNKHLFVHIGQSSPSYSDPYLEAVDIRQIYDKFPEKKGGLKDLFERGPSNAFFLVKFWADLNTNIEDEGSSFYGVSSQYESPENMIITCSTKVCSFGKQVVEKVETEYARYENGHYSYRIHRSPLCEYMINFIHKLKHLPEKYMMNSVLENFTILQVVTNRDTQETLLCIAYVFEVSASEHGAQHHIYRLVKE
Protocol: as §1, §2, §3, §4, §5, §6
TEAD4: the stock concentration was 2.3 mg/ml; the final concentration was 0.1 mg/ml.
as §8, §9, §10, §11, §12

Row | Compound | IC50 (NCI-H226 cells; Homo sapiens, NCI-H226, 168 h) [nM] | TEAD2 ΔTm (TEAD2) [°C] | TEAD3 ΔTm (TEAD3) [°C] | TEAD1 ΔTm (TEAD1) [°C] | TEAD4 ΔTm (TEAD4) [°C] | IC50 (NCI-H226 cells) [nM]
1 | O=C(O)[C@@H]1CC1c1cc(-c2ccc(C(F)(F)F)cc2)cc2cn[nH]c12 (mixture of isomers) [Example 1] | 1000 to 30000 |  |  |  |  | 
2 | Cn1ncc2cc(-c3ccc(C(F)(F)F)cc3)cc(C3C[C@H]3C(=O)O)c21 (mixture of isomers) [Example 3] | 1000 to 30000 |  |  |  |  | 
3 | O=C(O)[C@@H]1CC1c1cc(-c2ccc(C(F)(F)F)cc2)cc2cn(-c3cccnc3)nc12 (mixture of isomers) [Example 4] | 1000 to 30000 | 1.6 | 1.1 | 5 | 4.2 | 
4 | O=C(O)[C@@H]1CC1c1cc(-c2ccc(C(F)(F)F)cc2)cc2[nH]ncc12 (mixture of isomers) [Example 5] | 1000 to 30000 |  |  |  |  | 
5 | Cn1cc2c(C3C[C@H]3C(=O)O)cc(-c3ccc(C(F)(F)F)cc3)cc2n1 (mixture of isomers) [Example 6] | 100 to 500 |  |  |  |  | 
6 | Cn1ncc2c(C3C[C@H]3C(=O)O)cc(-c3ccc(C(F)(F)F)cc3)cc21 (mixture of isomers) [Example 7] |  | 5.7 | 2 | 5.7 | 7.2 | 100 to 500
7 | Cn1ncc2c(C3C[C@H]3C(=O)O)cc(-c3ccc(C(F)(F)F)cc3)cc21 (mixture of isomers) [Example 8] |  |  |  |  |  | 1000 to 30000
8 | O=C(O)[C@@H]1CC1c1cc(-c2ccc(C(F)(F)F)cc2)cc2c1cnn2C(F)F (mixture of isomers) [Example 9] | 100 to 500 | 4.1 | 1.2 | 5.8 | 5.6 | 
9 | Cn1ncc2c(C3C[C@H]3C(=O)O)cc(-c3ccc(OC(F)(F)F)cc3)cc21 (mixture of isomers) [Example 10] | 100 to 500 | 7.7 | 2 | 6 | 7.3 | 
10 | Cn1cc2cc(-c3ccc(OC(F)(F)F)cc3)cc(C3C[C@H]3C(=O)O)c2n1 (mixture of isomers) [Example 12] | < 100 | 9.4 | 2.3 | 7.7 | 11.5 | 
11 | O=C(O)[C@@H]1CC1c1cc(-c2ccc(C(F)(F)F)cc2)cc2cccnc12 (mixture of isomers) [Example 13] | < 100 | 6.6 | 1.8 | 7.7 | 8.3 | 

Next, values leading:

Row | IC50 (NCI-H226 cells; Homo sapiens, NCI-H226, 168 h) [nM] | TEAD2 ΔTm (TEAD2) [°C] | TEAD3 ΔTm (TEAD3) [°C] | TEAD1 ΔTm (TEAD1) [°C] | TEAD4 ΔTm (TEAD4) [°C] | IC50 (NCI-H226 cells) [nM] | Compound
12 | 1000 to 30000 | 0.3 | 0 | 0.4 | 0.2 |  | O=C(O)[C@@H]1CC1c1cc(-c2ccc(C(F)(F)F)cc2)cc2scnc12 (mixture of isomers) [Example 14]
13 | 100 to 500 | 5.1 | 1.2 | 5 | 3.7 |  | CN1Cc2cc(-c3ccc(C(F)(F)F)cc3)cc(C3C[C@H]3C(=O)O)c2C1=O (mixture of isomers) [Example 15]
14 | 1000 to 30000 | 3.4 | 0.9 | 1.9 | 1.8 |  | Cn1ncc2c(C3C[C@H]3C(=O)O)cc(OCc3ccc(C(F)(F)F)cc3)cc21 (mixture of isomers) [Example 19]
15 | 500 to 1000 |  |  |  |  |  | Cn1ncc2c([C@@H]3C[C@H]3C(=O)NCCO)cc(-c3ccc(C(F)(F)F)cc3)cc21 (racemic) [Example 29]
16 | 1000 to 30000 |  |  |  |  |  | Cn1cc2cc(Oc3ccc(C(F)(F)F)cc3)cc([C@@H]3C[C@H]3C(=O)N3CC(O)C3)c2n1 (single isomer, unassigned) [Example 58a]
17 | < 100 |  |  |  |  |  | C[C@H](C#N)NC(=O)[C@@H]1C[C@H]1c1cc(Oc2ccc(C(F)(F)F)cc2)cc2cn(C)nc12 (single isomer, unassigned) [Example 68]
18 | 1000 to 30000 |  |  |  |  |  | Cc1cn2cc(Oc3ccc(C(F)(F)F)cc3)cc(C3C[C@H]3C(=O)N3CC(O)C3)c2n1 (single isomer, unassigned) [Example 85a]
19 | 1000 to 30000 |  |  |  |  |  | C=C(CS(=O)(=O)NC)c1cc(-c2ccc(C(F)(F)F)cc2)cc2c1cnn2C [Example 43]
